# Measured values: paper PMC9090415, “Discovery of small molecule inhibitors of Plasmodium falciparum apicoplast DNA polymerase” (Journal of Enzyme Inhibition and Medicinal Chemistry, 2022)
# Target: P. falciparum apicoplast DNA polymerase (Pf-apPOL) (Plasmodium falciparum, UniProt Q8ILY1)
# Experiment: Fluorescence-based high-throughput DNA polymerase assay (molecular beacon), primary screen and dose-response;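 on % inhibition ApPOL 90': test concentration in µM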;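 on % inhibition apPOL 180': test concentration in µM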
# Format: biochemical
# Conditions: for DNA Pol: 90 min, 10 µM
# In short: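 Single-point screening used 10 µM compound with 20 nM polymerase, 20 nM hairpin substrate and 6 µM dNTPs for 90 min at 25 °C. Confirmatory titrations (2.5–80 µM) followed fluorescence at three times, and IC50 was derived from a fit including a cooperativity term n.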
# [1] = primary screen value of the 186 hits, unit not given
# Sequence of P. falciparum apicoplast DNA polymerase (Pf-apPOL) (Q8ILY1 entry or part of it): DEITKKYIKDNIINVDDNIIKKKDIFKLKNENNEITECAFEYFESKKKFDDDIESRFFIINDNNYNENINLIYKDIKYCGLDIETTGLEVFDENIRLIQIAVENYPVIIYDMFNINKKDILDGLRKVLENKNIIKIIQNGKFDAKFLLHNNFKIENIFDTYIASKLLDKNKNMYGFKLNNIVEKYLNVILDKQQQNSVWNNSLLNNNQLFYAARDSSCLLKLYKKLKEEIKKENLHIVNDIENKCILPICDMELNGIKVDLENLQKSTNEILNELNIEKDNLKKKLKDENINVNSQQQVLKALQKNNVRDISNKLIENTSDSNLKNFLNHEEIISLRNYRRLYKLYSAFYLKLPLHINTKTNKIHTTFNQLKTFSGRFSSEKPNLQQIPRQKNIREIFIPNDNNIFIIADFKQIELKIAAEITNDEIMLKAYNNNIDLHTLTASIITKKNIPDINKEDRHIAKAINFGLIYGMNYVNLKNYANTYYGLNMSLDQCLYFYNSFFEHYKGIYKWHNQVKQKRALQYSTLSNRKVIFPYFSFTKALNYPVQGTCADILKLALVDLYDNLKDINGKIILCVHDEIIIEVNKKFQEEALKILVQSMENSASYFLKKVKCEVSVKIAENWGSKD
smiles,measurement,setting,value
CN(C)C1C(c2ccccc2)=C(c2ccccc2)SC(c2ccccc2)C1[N+](=O)[O-] (stereo not shown) [KU0268387],% inhibition Apo pol 10',"DRC-1, concentration 2.5",4.043%
same,% inhibition Apo pol 10',"DRC-1, concentration 5",23.3831%
same,% inhibition Apo pol 10',"DRC-1, concentration 10",45.0315%
same,% inhibition Apo pol 10',"DRC-1, concentration 20",49.4618%
same,% inhibition Apo pol 10',"DRC-1, concentration 40",64.8423%
same,% inhibition Apo pol 10',"DRC-1, concentration 80",77.5449%
same,% inhibition Apol 90',"DRC-1, 90', concentration 2.5",3.398%
same,% inhibition Apol 90',"DRC-1, 90', concentration 5",22.5056%
same,% inhibition Apol 90',"DRC-1, 90', concentration 10",44.0197%
same,% inhibition Apol 90',"DRC-1, 90', concentration 20",52.549%
same,% inhibition Apol 90',"DRC-1, 90', concentration 40",68.5649%
same,% inhibition Apol 90',"DRC-1, 90', concentration 80",83.9893%
same,% inhibition apPOL 180',"DRC-1, 180', concentration 2.5",1.708%
same,% inhibition apPOL 180',"DRC-1, 180', concentration 5",12.7714%
same,% inhibition apPOL 180',"DRC-1, 180', concentration 10",32.8138%
same,% inhibition apPOL 180',"DRC-1, 180', concentration 20",41.7834%
same,% inhibition apPOL 180',"DRC-1, 180', concentration 40",60.315%
same,% inhibition apPOL 180',"DRC-1, 180', concentration 80",80.8354%
same,% inhibition Apol 40',"DRC-2, 40', concentration 20 (unit not given)",53%
same,% inhibition ApPOL 90',"DRC-2, 90', concentration 20 (unit not given)",53%
same,% inhibition apPOL 180',"DRC-2, 180', concentration 20 (unit not given)",47%
same,% inhibition Apo pol 5',"DRC-2, concentration 2.5",0.589%
same,% inhibition Apo pol 5',"DRC-2, concentration 5",19%
same,% inhibition Apo pol 5',"DRC-2, concentration 10",32%
same,% inhibition Apo pol 5',"DRC-2, concentration 20",40%
same,% inhibition Apo pol 5',"DRC-2, concentration 40",42%
same,% inhibition Apo pol 5',"DRC-2, concentration 80",47%
same,% inhibition Apo pol 5',"DRC-2, concentration 80 (unit not given)",47%
same,% inhibition Apol 40',"DRC-2, 40', concentration 2.5",1.84%
same,% inhibition Apol 40',"DRC-2, 40', concentration 5",25%
same,% inhibition Apol 40',"DRC-2, 40', concentration 10",39%
same,% inhibition Apol 40',"DRC-2, 40', concentration 20",53%
same,% inhibition Apol 40',"DRC-2, 40', concentration 40",60%
same,% inhibition Apol 40',"DRC-2, 40', concentration 80",68%
same,% inhibition ApPOL 90',"DRC-2, 90', concentration 2.5",0.484%
same,% inhibition ApPOL 90',"DRC-2, 90', concentration 5",23%
same,% inhibition ApPOL 90',"DRC-2, 90', concentration 10",38%
same,% inhibition ApPOL 90',"DRC-2, 90', concentration 20",53%
same,% inhibition ApPOL 90',"DRC-2, 90', concentration 40",62%
same,% inhibition ApPOL 90',"DRC-2, 90', concentration 80",71%
same,% inhibition apPOL 180',"DRC-2, 180', concentration 2.5",-3.51%
same,% inhibition apPOL 180',"DRC-2, 180', concentration 5",15%
same,% inhibition apPOL 180',"DRC-2, 180', concentration 10",31%
same,% inhibition apPOL 180',"DRC-2, 180', concentration 20",47%
same,% inhibition apPOL 180',"DRC-2, 180', concentration 40",58%
same,% inhibition apPOL 180',"DRC-2, 180', concentration 80",70%
same,DNA Pol,[1],78
same,DNA Pol,"primary screen value, head ""DNA Pol"", unit not given",78
O=C1C(=Cc2ccncc2)Oc2c1ccc1c2CN(Cc2ccc3c(c2)OCO3)CO1 [KU0199357],% inhibition Apo pol 10',"DRC-1, concentration 2.5",-2.582%
same,% inhibition Apo pol 10',"DRC-1, concentration 5",7.288%
same,% inhibition Apo pol 10',"DRC-1, concentration 10",20.9046%
same,% inhibition Apo pol 10',"DRC-1, concentration 20",43.4481%
same,% inhibition Apo pol 10',"DRC-1, concentration 40",58.0959%
same,% inhibition Apo pol 10',"DRC-1, concentration 80",67.6881%
same,% inhibition Apol 90',"DRC-1, 90', concentration 2.5",5.905%
same,% inhibition Apol 90',"DRC-1, 90', concentration 5",17.1592%
same,% inhibition Apol 90',"DRC-1, 90', concentration 10",34.0534%
same,% inhibition Apol 90',"DRC-1, 90', concentration 20",57.2301%
same,% inhibition Apol 90',"DRC-1, 90', concentration 40",66.3839%
same,% inhibition Apol 90',"DRC-1, 90', concentration 80",71.081%
same,% inhibition apPOL 180',"DRC-1, 180', concentration 2.5",18.2%
same,% inhibition apPOL 180',"DRC-1, 180', concentration 5",33.6281%
same,% inhibition apPOL 180',"DRC-1, 180', concentration 10",52.8401%
same,% inhibition apPOL 180',"DRC-1, 180', concentration 20",75.9569%
same,% inhibition apPOL 180',"DRC-1, 180', concentration 40",84.0502%
same,% inhibition apPOL 180',"DRC-1, 180', concentration 80",84.7923%
same,% inhibition Apo pol 5',"DRC-2, concentration 2.5",6%
same,% inhibition Apo pol 5',"DRC-2, concentration 5",15%
same,% inhibition Apo pol 5',"DRC-2, concentration 10",35%
same,% inhibition Apo pol 5',"DRC-2, concentration 20",37%
same,% inhibition Apo pol 5',"DRC-2, concentration 40",46%
same,% inhibition Apo pol 5',"DRC-2, concentration 80",40%
same,% inhibition Apol 40',"DRC-2, 40', concentration 2.5",1.87%
same,% inhibition Apol 40',"DRC-2, 40', concentration 5",3%
same,% inhibition Apol 40',"DRC-2, 40', concentration 10",31%
same,% inhibition Apol 40',"DRC-2, 40', concentration 20",32%
same,% inhibition Apol 40',"DRC-2, 40', concentration 40",39%
same,% inhibition Apol 40',"DRC-2, 40', concentration 80",34%
same,% inhibition ApPOL 90',"DRC-2, 90', concentration 2.5",-1.19%
same,% inhibition ApPOL 90',"DRC-2, 90', concentration 5",-9%
same,% inhibition ApPOL 90',"DRC-2, 90', concentration 10",26%
same,% inhibition ApPOL 90',"DRC-2, 90', concentration 20",27%
same,% inhibition ApPOL 90',"DRC-2, 90', concentration 40",36%
same,% inhibition ApPOL 90',"DRC-2, 90', concentration 80",34%
same,% inhibition apPOL 180',"DRC-2, 180', concentration 2.5",-7%
same,% inhibition apPOL 180',"DRC-2, 180', concentration 5",-87%
same,% inhibition apPOL 180',"DRC-2, 180', concentration 10",11%
same,% inhibition apPOL 180',"DRC-2, 180', concentration 20",13%
same,% inhibition apPOL 180',"DRC-2, 180', concentration 40",28%
same,% inhibition apPOL 180',"DRC-2, 180', concentration 80",35%
same,% inhibition Apo pol 5',"conc. 10, DRC-2",35%
same,% inhibition Apol 40',"conc. 80, 40', DRC-2",34%
same,% inhibition ApPOL 90',"conc. 80, 90', DRC-2",34%
same,% inhibition apPOL 180',"conc. 80, 180', DRC-2",35%
same,DNA Pol,primary screen value by plate and well,32
same,DNA Pol,[1],32
O=C(NNC(=O)c1ccc(Cl)cc1)C(=O)NNC(=O)c1ccc(Cl)cc1 [Molecule 25],IC50,"supplemental file 2, sheet IC50 nontoxic compounds, Pf-apPOL",9.83 µM
